Data from patent US4125615A, “2-[4-(P-Aminobenzyl)-1-piperazinyl]-8-ethyl-5,8-dihydro-5-oxopyrido[2,3-d]p y” (priority 1976, dated 1978).
In brackets after ≈: the same amount, converted by molar mass. Where two headings read alike, the source gives them in different places.

Experiments:
[1] = system: Staphylococcus aureus Terajima; experiment: In vitro antibacterial activity (MIC), Staphylococcus aureus Terajima; assay type: cell-based
Experimental: (§1) (1) In vitro antibacterial activity against 9 strains of bacteria (Gram-positive bacteria: 4 strains, Gram-negative bacteria: 5 strains)
(§2) The test compounds were dissolved in distilled water at a concentration of 1 mg/ml with equimolar NaOH. Then graded concentrations (300, 100, 30, 10, 3 μg/ml, etc.) were made by serial dilution with distilled water. Each solution of test compound (0.5 ml) was pipetted into 4.5 ml of medium in a tube. The media used were Brain Heart Infusion Broth, pH 7.4, for Streptococcus and nutrient broth [10 g of Polypepton, 10 g of Meat Extract, and 2.5 g of NaCl in 1 liter of distilled water], pH 7.0, for the other bacteria. One drop of a bacterial suspension freshly cultured and diluted so as to contain 10 to 100 minimal growing units in the medium was inoculated into the tube. The tubes were incubated at 37° C. for 48 hours. The minimal inhibitor concentration (MIC) was defined as the lowest concentration in which no visible growth of the bacteria was detected.

[2] = system: Staphylococcus aureus No. 10; experiment: In vitro antibacterial activity (MIC), Staphylococcus aureus No. 10; assay type: cell-based
Experimental: as §1, §2

[3] = system: Staphylococcus aureus No. 50774; experiment: In vitro antibacterial activity (MIC), Staphylococcus aureus No. 50774; assay type: cell-based
Experimental: as §1, §2

[4] = system: Streptococcus pyogenes A65; experiment: In vitro antibacterial activity (MIC), Streptococcus pyogenes A65; assay type: cell-based; conditions: Brain Heart Infusion Broth pH 7.4, 37° C., 48 hours
Experimental: as §1, §2

Escherichia coli K-12 = experiment: In vitro antibacterial activity (MIC), Escherichia coli K-12; assay type: cell-based
Experimental: as §1, §2

Escherichia coli P-5101 [5] = experiment: In vitro antibacterial activity (MIC), Escherichia coli P-5101; assay type: cell-based
Experimental: as §1, §2

Proteus vulgaris OX-19 = experiment: In vitro antibacterial activity (MIC), Proteus vulgaris OX-19; assay type: cell-based
Experimental: as §1, §2

Shigella sonnei EW33 = experiment: In vitro antibacterial activity (MIC), Shigella sonnei EW33; assay type: cell-based; conditions: nutrient broth pH 7.0, 37° C., 48 hours
Experimental: as §1, §2

[6] = system: Salmonella typhimurium S-9; experiment: In vitro antibacterial activity (MIC), Salmonella typhimurium S-9; assay type: cell-based; conditions: Salmonella enterica
Experimental: as §1, §2

[7] = system: Staphylococcus aureus No. 50774; experiment: In vivo efficacy against the intravenous infection of mice by Staphylococcus aureus No. 50774; conditions: NO.50774, 336 h, male ddY mice, iv infection 6 LD50, oral, twice (5 minutes and 6 hours after infection), survival after 2 weeks
Experimental: (2) in vivo efficacy against the intravenous infection of mice by Staphylococcus aureus No. 50774
(§3) Each group of 8 male mice (ddY strain, approximately 20 g) was intravenously infected with 6 LD50 of Staphylococcus aureus No. 50774 in 0.85% saline. The test compounds were each suspended in 0.2% carboxymethyl cellulose and administered orally in graded doses (200, 100, 50, 25, 12.5, 6.3, 3.1 mg/kg, etc.) to the infected mice twice, about 5 minutes and 6 hours after infection. Survival rates were determined after 2 weeks and the ED50 was calculated in accordance with Probit method.

[8] = system: Streptococcus pyogenes A65; experiment: In vivo efficacy against the intraperitoneal infection of mice by Streptococcus pyogenes A65; conditions: A65, 336 h, male ddY mice, ip infection 4 LD50, oral, twice (5 minutes and 6 hours after infection), survival after 2 weeks
Experimental: as §3
(3) In vivo efficacy against the intraperitoneal infection of mice by Streptococcus pyogenes A65
Each group of 8 male mice (ddY strain, approximately 20 g) was intraperitoneally infected with 4 LD50 of Streptococcus pyogenes A65 suspended in Brain Heart Infusion Broth. The subsequent procedures were the same as those described in (2).

Escherichia coli P-5101 [9] = experiment: In vivo efficacy against the intraperitoneal infection of mice by Escherichia coli p-5101; conditions: P5101, 336 h, male ddY mice, ip infection 9 LD50, 4% gastric mucin, oral, twice (5 minutes and 6 hours after infection), survival after 2 weeks
Experimental: as §3
(4) in vivo efficacy against the intraperitoneal infection of mice by Escherichia coli p-5101
Each group of 8 male mice (ddY strain, approximately 20 g) was intraperitoneally infected with 9 LD50 of Escherichia coli p-5101 suspended in Trypto-Soy Broth supplemented with 4% gastric mucin. The subsequent procedures were the same as those described in (2).

in vivo = conditions: mouse, in vivo, female ddY mice, Behrens-Kaerber method
Text: (§4) (5) acute toxicity in mice
(§5) Female ddY strain mice, weighing 25 to 33 g, were used. Test compounds were suspended in 0.2% carboxymethyl cellulose for oral administration, and dissolved in NaOH solution (final pH 8.8-9.2) for intravenous administration.

mice = experiment: in vivo
Text: as §4, §5

Staphylococcus aureus [10] = conditions: Antimicrob. Agents Chemother.; cited from earlier work
Staphylococcus aureus [11] = conditions: compounds of U.S. Pat. Nos. 3,887,557 and 3,950,338; cited from earlier work
Staphylococcus aureus [12] = conditions: compounds of U.S. Pat. Nos. 3,887,557 and 3,950,338; cited from earlier work; remark: listed apart in the source
[13] = system: Gram-positive and Gram-negative bacteria; experiment: Antibacterial activity against Gram-positive and Gram-negative bacteria (summary statement); conditions: in words
[14] = Staphylococcus aureus Terajima, nutrient broth pH 7.0, 37° C., 48 hours, read-out: MIC
[15] = Staphylococcus aureus No. 10, nutrient broth pH 7.0, 37° C., 48 hours, read-out: MIC
[16] = Staphylococcus aureus No. 50774, nutrient broth pH 7.0, 37° C., 48 hours, read-out: MIC
[17] = K12, Escherichia coli K-12, nutrient broth pH 7.0, 37° C., 48 hours, read-out: MIC
[18] = P5101, Escherichia coli P-5101, nutrient broth pH 7.0, 37° C., 48 hours, read-out: MIC
[19] = OX19, Proteus vulgaris OX-19, nutrient broth pH 7.0, 37° C., 48 hours, read-out: MIC
[20] = oral, 7 days, read-out: LD50 (oral administration)
[21] = Escherichia coli, K12, 48 h, pH 7
[22] = Escherichia coli, P5101, 48 h, pH 7
[23] = Proteus vulgaris, OX19, 48 h, pH 7
[24] = Staphylococcus aureus, NO.50774, 48 h, pH 7

SMILES	MIC [1, 14]	MIC [2, 15]	MIC [3, 16]	MIC [4]	MIC (Escherichia coli K-12; [17])	MIC (Escherichia coli P-5101 [5]; [18])	MIC (Proteus vulgaris OX-19; [19])	MIC (Shigella sonnei EW33)	MIC ([6]; TYPHIMURIUM, 48 h, pH 7)	ED50 [7]	ED50 [8]	ED50 (Escherichia coli P-5101 [9])	LD50 at 168 h (in vivo; [20])	effect on systemic infection by Staphylococcus aureus (Staphylococcus aureus [10])	MIC (Escherichia coli K-12; [21])	MIC (Escherichia coli P-5101 [5]; [22])	MIC (Proteus vulgaris OX-19; [23])	MIC [3, 24]	in vitro activities against Staphylococcus aureus (Staphylococcus aureus [11])	in vivo activities against Staphylococcus aureus (Staphylococcus aureus [12])	other results
CCn1cc(C(=O)O)c(=O)c2cnc(N3CCCC3)nc21 [Compound PA, 2-pyrrolidino-8-ethyl-5,8-dihydro-5-oxopyrido [2,3-d]pyrimidine-6-carboxylic acid]	10 µg/mL (≈ 34.7 µM)	10 µg/mL (≈ 34.7 µM)	10 µg/mL (≈ 34.7 µM)	300 µg/mL (≈ 1040 µM)	1 µg/mL (≈ 3.47 µM)	10 µg/mL (≈ 34.7 µM)	1 µg/mL (≈ 3.47 µM)	3 µg/mL (≈ 10.4 µM)	3 µg/mL (≈ 10.4 µM)	> 200 mg/kg	> 100 mg/kg	36.6 mg/kg	> 2000 mg/kg	only extremely weak effect							LD50 (intravenous administration) (mice; female ddY mice, iv, NaOH solution final pH 8.8-9.2, 7 days, Behrens-Kaerber method): 268 mg/kg
CCn1cc(C(=O)O)c(=O)c2cnc(N3CCNCC3)nc21 [Compound PPA, 2-(1-piperazinyl)-8-ethyl-5,8-dihydro-5-oxopyrido [2,3-d]pyrimidine-6-carboxylic acid]	30 µg/mL (≈ 98.9 µM)	10 µg/mL (≈ 33 µM)	10 µg/mL (≈ 33 µM)	100 µg/mL (≈ 330 µM)				1 µg/mL (≈ 3.3 µM)	1 µg/mL (≈ 3.3 µM)	238 mg/kg	> 100 mg/kg	21.2 mg/kg		only extremely weak effect	1 µg/mL (≈ 3.3 µM)	1 µg/mL (≈ 3.3 µM)	3 µg/mL (≈ 9.89 µM)				
CCn1cc(C(=O)O)c(=O)c2cnc(N3CCN(Cc4ccc(OC)cc4)CC3)nc21 [Compound 2, 2-[4-(p-Methoxybenzyl)-1-piperazinyl]-8-ethyl-5,8-dihydro-5-oxopyrido[2,3-d]pyrimidine-6-carboxylic acid]	10 µg/mL (≈ 23.6 µM)	10 µg/mL (≈ 23.6 µM)		100 µg/mL (≈ 236 µM)		10 µg/mL (≈ 23.6 µM)	10 µg/mL (≈ 23.6 µM)	3 µg/mL (≈ 7.08 µM)	3 µg/mL (≈ 7.08 µM)	54.5 mg/kg	> 100 mg/kg				3 µg/mL (≈ 7.08 µM)			3 µg/mL (≈ 7.08 µM)	relatively strong	weak	
CCn1cc(C(=O)O)c(=O)c2cnc(N3CCN(Cc4ccccc4)CC3)nc21 [Compound 1, 2-(4-Benzyl-1-piperazinyl)-8-ethyl-5,8-dihydro-5-oxopyrido[2,3-d]-pyrimidine-6-carboxylic acid]	10 µg/mL (≈ 25.4 µM)	10 µg/mL (≈ 25.4 µM)		100 µg/mL (≈ 254 µM)		10 µg/mL (≈ 25.4 µM)		3 µg/mL (≈ 7.62 µM)	3 µg/mL (≈ 7.62 µM)	~50 mg/kg	> 100 mg/kg				3 µg/mL (≈ 7.62 µM)		3 µg/mL (≈ 7.62 µM)	3 µg/mL (≈ 7.62 µM)	relatively strong	weak	
CCn1cc(C(=O)O)c(=O)c2cnc(N3CCN(Cc4ccc(N)cc4)CC3)nc21 [Compound AT-1826, 2-[4-(p-Aminobenzyl)-1-piperazinyl]-8-ethyl-5,8-dihydro-5-oxopyrido[2,3-d]pyrimidine-6-carboxylic acid]				30 µg/mL (≈ 73.4 µM)				1 µg/mL (≈ 2.45 µM)	3 µg/mL (≈ 7.34 µM)	7.2 mg/kg	47.7 mg/kg	35.6 mg/kg	> 2000 mg/kg		1 µg/mL (≈ 2.45 µM)	3 µg/mL (≈ 7.34 µM)	3 µg/mL (≈ 7.34 µM)	1 µg/mL (≈ 2.45 µM)			MIC ([1]; Staphylococcus aureus, 48 h, pH 7): 3 µg/mL (≈ 7.34 µM); MIC ([2]; Staphylococcus aureus, NO.10, 48 h, pH 7): 3 µg/mL (≈ 7.34 µM); LD50 at 168 h (in vivo; iv, NaOH solution final pH 8.8-9.2, 7 days, read-out: LD50 (intravenous administration)): 354 mg/kg; toxicity (mice; in words): low toxicity; antibacterial activities against Gram-positive and Gram-negative bacteria [13]: excellent antibacterial activities
CCn1cc(C(=O)O)c(=O)c2cnc(N3CCN(Cc4ccc(Cl)cc4)CC3)nc21 [Compound 3, 2-[4-(p-Chlorobenzyl)-1-piperazinyl]-8-ethyl-5,8-dihydro-5-oxopyrido[2,3-d]pyrimidine-6-carboxylic acid]	10 µg/mL (≈ 23.4 µM)	10 µg/mL (≈ 23.4 µM)		30 µg/mL (≈ 70.1 µM)	10 µg/mL (≈ 23.4 µM)	30 µg/mL (≈ 70.1 µM)	10 µg/mL (≈ 23.4 µM)	3 µg/mL (≈ 7.01 µM)		> 100 mg/kg	> 100 mg/kg							3 µg/mL (≈ 7.01 µM)	relatively strong	weak	MIC ([6]; Salmonella typhimurium S-9, nutrient broth pH 7.0, 37° C., 48 hours, read-out: MIC): 10 µg/mL (≈ 23.4 µM)
